The record followed here is ChEMBL document CHEMBL1141589, “Synthesis and biological evaluation of NO-donor-tacrine hybrids as hepatoprotective anti-Alzheimer drug candidates” (J Med Chem, 2008).

One experiment deals with Cholinesterase (Homo sapiens, UniProt P06276).
The next experiment addresses Acetylcholinesterase (Homo sapiens, UniProt P22303). Briefly: Inhibition of AChE by Ellman's assay. (In general: Ellman's reagent forms a yellow product with free thiols.)
The next experiment concerns Artery. As to the kind of experiment: tissue or blood. As to conditions: Sus scrofa.

Usually IC50 stands for the concentration needed to halve the response being measured. A word on the EC50: it is the midpoint of the concentration-response curve. High values mean weaker potency, low ones greater potency.

Cholinesterase, sequence (P06276 whole entry): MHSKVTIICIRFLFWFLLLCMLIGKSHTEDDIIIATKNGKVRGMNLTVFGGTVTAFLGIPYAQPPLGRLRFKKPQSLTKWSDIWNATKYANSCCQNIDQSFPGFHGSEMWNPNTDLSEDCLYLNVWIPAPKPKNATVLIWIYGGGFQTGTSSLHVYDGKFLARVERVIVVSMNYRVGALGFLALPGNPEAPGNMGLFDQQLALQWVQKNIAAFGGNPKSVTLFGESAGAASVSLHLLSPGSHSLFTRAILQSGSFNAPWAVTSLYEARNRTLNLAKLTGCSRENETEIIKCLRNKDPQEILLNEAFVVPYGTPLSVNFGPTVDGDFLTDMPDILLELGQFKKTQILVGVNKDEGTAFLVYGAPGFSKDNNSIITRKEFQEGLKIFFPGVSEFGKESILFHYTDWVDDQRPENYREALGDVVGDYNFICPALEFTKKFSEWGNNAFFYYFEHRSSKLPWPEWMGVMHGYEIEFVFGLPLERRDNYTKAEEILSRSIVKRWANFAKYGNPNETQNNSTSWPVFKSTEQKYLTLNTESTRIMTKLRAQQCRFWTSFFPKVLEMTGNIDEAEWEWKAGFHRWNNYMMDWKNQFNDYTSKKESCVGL
Acetylcholinesterase, sequence (P22303 whole entry): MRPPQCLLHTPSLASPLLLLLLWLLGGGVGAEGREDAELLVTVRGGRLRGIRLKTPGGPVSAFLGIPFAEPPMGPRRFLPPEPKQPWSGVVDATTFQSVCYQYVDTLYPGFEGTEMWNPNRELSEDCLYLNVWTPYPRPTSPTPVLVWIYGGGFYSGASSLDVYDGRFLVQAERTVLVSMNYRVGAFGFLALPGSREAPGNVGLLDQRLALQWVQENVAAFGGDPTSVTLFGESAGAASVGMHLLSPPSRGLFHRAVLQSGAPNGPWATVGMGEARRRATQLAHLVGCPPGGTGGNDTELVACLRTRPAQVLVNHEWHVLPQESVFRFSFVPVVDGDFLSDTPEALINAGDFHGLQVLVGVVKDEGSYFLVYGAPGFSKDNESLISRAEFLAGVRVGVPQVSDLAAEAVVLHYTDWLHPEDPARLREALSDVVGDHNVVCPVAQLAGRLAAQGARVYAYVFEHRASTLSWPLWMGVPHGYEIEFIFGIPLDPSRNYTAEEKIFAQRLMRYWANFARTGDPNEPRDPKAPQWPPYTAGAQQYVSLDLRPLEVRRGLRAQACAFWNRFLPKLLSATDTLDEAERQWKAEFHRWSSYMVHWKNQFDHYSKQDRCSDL
Description for Artery: Vasorelaxation activity in PGF2-alpha-precontracted pig pulmonary artery

With `O=[N+]([O-])OCCNCCCCNc1c2c(nc3ccccc13)CCCC2`, the IC50 against Cholinesterase was determined as 13.8 nM; against Acetylcholinesterase it was 11.1 nM.
For `CC(C)(C)C(=O)NCCCCNc1c2c(nc3ccccc13)CCCC2` the same measures were 36.5 nM and 21.6 nM.
Turning to `CC(C)(CO[N+](=O)[O-])C(=O)NCCCCNc1c2c(nc3ccccc13)CCCC2`, the figures for the IC50 against Cholinesterase and against Acetylcholinesterase were 7.3 nM and 226 nM, respectively. Also, the EC50 in the experiment with Artery worked out at 10500 nM.
For `O=[N+]([O-])OCCNCCCNc1c2c(nc3ccccc13)CCCC2`, the figures for the half-maximal inhibitory concentration (IC50) at Cholinesterase and at Acetylcholinesterase were 5.2 nM and 10 nM, respectively.
Turning to `CC(C)(CO[N+](=O)[O-])C(=O)NCCCNc1c2c(nc3ccccc13)CCCC2`, the 50% inhibitory concentration (IC50) at Cholinesterase is 5.5 nM; at Acetylcholinesterase, 69.5 nM.
As for `O=C(CO[N+](=O)[O-])NCCCNc1c2c(nc3ccccc13)CCCC2`, the IC50 against Cholinesterase was 13.5 nM; against Acetylcholinesterase it was 28.2 nM. Besides, the response in the experiment on Artery was half-maximal at 3680 nM (EC50).
For `O=[N+]([O-])OCCCNCCCCNc1c2c(nc3ccccc13)CCCC2` the same measures were 9.9 nM, 5.6 nM and 8800 nM.
In the same order, the values of `O=C(CO/N=[N+](\[O-])N1CCCC1)NCCCNc1c2c(nc3ccccc13)CCCC2` are 15.3 nM, 35.5 nM and 22500 nM.
On to `O=[N+]([O-])OCCCCCCNCCCCNc1c2c(nc3ccccc13)CCCC2`, for which the figures for the IC50 against Cholinesterase and against Acetylcholinesterase were 10.8 nM and 18.1 nM, respectively.
As for `O=C(CO[N+](=O)[O-])NCCCCNc1c2c(nc3ccccc13)CCCC2`, the half-inhibitory concentration (IC50) on Cholinesterase turned out to be 12.1 nM; at Acetylcholinesterase it was 22.6 nM.
For `O=C(CO/N=[N+](\[O-])N1CCCC1)NCCCCNc1c2c(nc3ccccc13)CCCC2` the same measures were 41 nM and 50.7 nM.
For `O=[N+]([O-])OCCCCCCNCCCNc1c2c(nc3ccccc13)CCCC2` the same measures were 21.7 nM and 6.3 nM.
As for `O=[N+]([O-])OCCCNCCCNc1c2c(nc3ccccc13)CCCC2`, the IC50 on Cholinesterase was found to be 5.5 nM; against Acetylcholinesterase, 6.4 nM.
In the same order, the values of `O=C(CCO[N+](=O)[O-])NCCCCNc1c2c(nc3ccccc13)CCCC2` are 15.1 nM and 45.7 nM.
In the experiment on Artery, `O=[N+]([O-])O[C@H]1CO[C@H]2[C@@H]1OC[C@H]2O[N+](=O)[O-]` [ISOSORBIDE DINITRATE] displayed an EC50 of 420 nM.
`O=C(CCO[N+](=O)[O-])NCCCNc1c2c(nc3ccccc13)CCCC2`: the IC50 stood at 28 nM at Cholinesterase and 93 nM at Acetylcholinesterase.
